The values below come from ChEMBL document CHEMBL1121995, “Crystal structure and anti herpes simplex virus activity of 2,2'-anhydro-1-beta-D-arabinofuranosylthymine” (1982).

A word on the inhibition: it is the relative decrease from the control value, in per cent.

Holding throughout (type): functional
Assay [1] deals with Vero. In words: Percentage inhibition against Vero cells at a concentration of 600 uM. Conditions: Chlorocebus sabaeus.
Assay [2] relates to Vero. The assay is described as follows: Percentage inhibition against Vero cells at a concentration of 200 uM. The conditions noted are these: Chlorocebus sabaeus.
Assay [3] has as its system Vero. In words: Dose of compound required to reduced HSV-1 induced cytopathogenicity in vero cells. The conditions noted are these: Chlorocebus sabaeus, read-out: ED50 (the source's name). In general terms: Cytopathic effects are the visible damage that an infection or toxin causes in cultured cells.

Regarding `Cc1cn(C2O[C@H](CO)[C@@H](O)[C@@H]2O)c(=O)n(C)c1=O` (stereo partly drawn), the inhibition at 600 µM with Vero [1] stood at 59%. Besides, in the assay on Vero [2], the inhibition at 200 µM stood at 40%. Further, the EC50 with Vero [3] worked out at 140 nM.
